Values quoted from earlier work as cited in patent publication US20210353673A1, “CD11B + PIEZO-1 + MACROPHAGES AND USES THEREOF” (ALBERT-LUDWIGS-UNIVERSITÄT FREIBURG, priority 2018, published 2021).

Test system: endothelial cells
Conditions: after 1 week, normal angiogenesis induced by VEGF

vascular endothelial growth factor [VEGF]
ECs in Go phase: 93%
